PubChem BioAssay AID1963836 (Molecular Pharmacology Branch, DTP, NCI, 2024)

Test system: 857933-349-R-J2-PDC complex spheroid viability
Test: Anticancer human tumor 857933-349-R-J2-PDC patient-derived colon adenocarcinoma cell line growth inhibition [POLQ]
Settings: for IC50: curve of first compound; for viability, T/C: stronger effect = lower value
Method in brief: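 Three-cell-type spheroids modelling solid tumor plus stroma served as the readout system; POL inhibitors were tested individually and in combination, concentration ranges set by clinical Cmax where known.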

[1] = second compound 0.0316 µM, first compound 0.0316 µM
[2] = second compound 0.0316 µM, first compound 0.1 µM
[3] = second compound 0.0316 µM, first compound 0.316 µM
[4] = second compound 0.0316 µM, first compound 1 µM
[5] = second compound 0.0316 µM, first compound 3.16 µM
[6] = second compound 0.0316 µM, first compound 10 µM
[7] = second compound 0.1 µM, first compound 0.0316 µM
[8] = second compound 0.1 µM, first compound 0.1 µM
[9] = second compound 0.1 µM, first compound 0.316 µM
[10] = second compound 0.1 µM, first compound 1 µM
[11] = second compound 0.1 µM, first compound 3.16 µM
[12] = second compound 0.1 µM, first compound 10 µM
[13] = second compound 0.316 µM, first compound 0.0316 µM
[14] = second compound 0.316 µM, first compound 0.1 µM
[15] = second compound 0.316 µM, first compound 0.316 µM
[16] = second compound 0.316 µM, first compound 1 µM
[17] = second compound 0.316 µM, first compound 3.16 µM
[18] = second compound 0.316 µM, first compound 10 µM
[19] = second compound 1 µM, first compound 0.0316 µM
[20] = second compound 1 µM, first compound 0.1 µM
[21] = second compound 1 µM, first compound 0.316 µM
[22] = second compound 1 µM, first compound 1 µM
[23] = second compound 1 µM, first compound 3.16 µM
[24] = second compound 1 µM, first compound 10 µM
[25] = second compound 3.16 µM, first compound 0.0316 µM
[26] = second compound 3.16 µM, first compound 0.1 µM
[27] = second compound 3.16 µM, first compound 0.316 µM
[28] = second compound 3.16 µM, first compound 1 µM
[29] = second compound 3.16 µM, first compound 3.16 µM
[30] = second compound 3.16 µM, first compound 10 µM
[31] = second compound 10 µM, first compound 0.0316 µM
[32] = second compound 10 µM, first compound 0.1 µM
[33] = second compound 10 µM, first compound 0.316 µM
[34] = second compound 10 µM, first compound 1 µM
[35] = second compound 10 µM, first compound 3.16 µM
[36] = second compound 10 µM, first compound 10 µM
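Further: spheroids exposed to compounds for seven days before readout.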

COc1cccc2c1C(=O)c1c(O)c3c(c(O)c1C2=O)CC(O)(C(=O)CO)CC3OC1CC(N)C(O)C(C)O1 (stereo not drawn) + Cc1cccc(N(C)C(=O)C2C(O)CCN2c2nc(C)cc(C(F)(F)F)c2C#N)c1
IC50 (second compound 0.0316 µM): 0.218 µM
IC50 (second compound 0.1 µM): 0.315 µM
IC50 (second compound 0.316 µM): 0.304 µM
IC50 (second compound 1 µM): 0.196 µM
IC50 (second compound 3.16 µM): 0.199 µM
IC50 (second compound 10 µM): 0.176 µM
viability, T/C [1]: 86.9%
viability, T/C [2]: 62.2%
viability, T/C [3]: 47.1%
viability, T/C [4]: 17%
viability, T/C [5]: 0.52%
viability, T/C [6]: 0.28%
viability, T/C [7]: 76.9%
viability, T/C [8]: 79.5%
viability, T/C [9]: 48.4%
viability, T/C [10]: 12.9%
viability, T/C [11]: 0.41%
viability, T/C [12]: 0.35%
viability, T/C [13]: 70.4%
viability, T/C [14]: 79.1%
viability, T/C [15]: 46.7%
viability, T/C [16]: 14%
viability, T/C [17]: 0.45%
viability, T/C [18]: 0.46%
viability, T/C [19]: 74.1%
viability, T/C [20]: 60.1%
viability, T/C [21]: 42.3%
viability, T/C [22]: 6.42%
viability, T/C [23]: 0.28%
viability, T/C [24]: 0.34%
viability, T/C [25]: 86.2%
viability, T/C [26]: 66.4%
viability, T/C [27]: 40.2%
viability, T/C [28]: 7.89%
viability, T/C [29]: 0.38%
viability, T/C [30]: 0.47%
viability, T/C [31]: 65.9%
viability, T/C [32]: 64.1%
viability, T/C [33]: 35.7%
viability, T/C [34]: 4.82%
viability, T/C [35]: 0.36%
viability, T/C [36]: 0.46%

COc1ccc([C@@H](O)c2cc(-c3ncnc4cc(N5CCOCC5)ccc34)c(F)cc2Cl)nn1 + COC1C(OC(N)=O)C(O)C(Oc2ccc3c(O)c(NC(=O)c4ccc(O)c(CC=C(C)C)c4)c(=O)oc3c2C)OC1(C)C
IC50 (second compound 0.0316 µM): > 10 µM
IC50 (second compound 0.1 µM): > 10 µM
IC50 (second compound 0.316 µM): > 10 µM
IC50 (second compound 1 µM): > 10 µM
IC50 (second compound 3.16 µM): > 10 µM
IC50 (second compound 10 µM): > 10 µM
viability, T/C [1]: 114%
viability, T/C [2]: 102%
viability, T/C [3]: 123%
viability, T/C [4]: 96.2%
viability, T/C [5]: 91.4%
viability, T/C [6]: 65.3%
viability, T/C [7]: 91.5%
viability, T/C [8]: 123%
viability, T/C [9]: 87%
viability, T/C [10]: 98.7%
viability, T/C [11]: 72%
viability, T/C [12]: 94.3%
viability, T/C [13]: 112%
viability, T/C [14]: 102%
viability, T/C [15]: 84.5%
viability, T/C [16]: 89.2%
viability, T/C [17]: 76.1%
viability, T/C [18]: 61.1%
viability, T/C [19]: 100%
viability, T/C [20]: 93.4%
viability, T/C [21]: 106%
viability, T/C [22]: 79.5%
viability, T/C [23]: 89.8%
viability, T/C [24]: 65.7%
viability, T/C [25]: 89.4%
viability, T/C [26]: 118%
viability, T/C [27]: 101%
viability, T/C [28]: 94.3%
viability, T/C [29]: 77.5%
viability, T/C [30]: 63.8%
viability, T/C [31]: 101%
viability, T/C [32]: 93.5%
viability, T/C [33]: 107%
viability, T/C [34]: 69.5%
viability, T/C [35]: 76.4%
viability, T/C [36]: 72.3%

COc1cc2cc(C(=O)CCC(=O)O)sc2cc1OC + Cc1cccc(N(C)C(=O)C2C(O)CCN2c2nc(C)cc(C(F)(F)F)c2C#N)c1
IC50 (second compound 0.0316 µM): > 10 µM
IC50 (second compound 0.1 µM): > 10 µM
IC50 (second compound 0.316 µM): > 10 µM
IC50 (second compound 1 µM): > 10 µM
IC50 (second compound 3.16 µM): > 10 µM
IC50 (second compound 10 µM): > 10 µM
viability, T/C [1]: 97.6%
viability, T/C [2]: 95.1%
viability, T/C [3]: 93.6%
viability, T/C [4]: 97.7%
viability, T/C [5]: 96.9%
viability, T/C [6]: 84.1%
viability, T/C [7]: 94.8%
viability, T/C [8]: 93%
viability, T/C [9]: 102%
viability, T/C [10]: 102%
viability, T/C [11]: 86.8%
viability, T/C [12]: 87.2%
viability, T/C [13]: 88.8%
viability, T/C [14]: 93.8%
viability, T/C [15]: 89.9%
viability, T/C [16]: 89.4%
viability, T/C [17]: 87.9%
viability, T/C [18]: 76.5%
viability, T/C [19]: 89.4%
viability, T/C [20]: 96.5%
viability, T/C [21]: 100%
viability, T/C [22]: 96.9%
viability, T/C [23]: 101%
viability, T/C [24]: 92.1%
viability, T/C [25]: 104%
viability, T/C [26]: 106%
viability, T/C [27]: 90.4%
viability, T/C [28]: 101%
viability, T/C [29]: 100%
viability, T/C [30]: 86.6%
viability, T/C [31]: 84.7%
viability, T/C [32]: 87.6%
viability, T/C [33]: 81.6%
viability, T/C [34]: 105%
viability, T/C [35]: 88.8%
viability, T/C [36]: 85.6%

COc1cc2cc(C(=O)CCC(=O)O)sc2cc1OC + Nc1ccc(C#CCN(C(=O)Cc2ncc(C(F)(F)F)cc2C(F)(F)F)c2ccc(F)cc2)nn1
IC50 (second compound 0.0316 µM): > 10 µM
IC50 (second compound 0.1 µM): > 10 µM
IC50 (second compound 0.316 µM): > 10 µM
IC50 (second compound 1 µM): > 10 µM
IC50 (second compound 3.16 µM): > 10 µM
IC50 (second compound 10 µM): > 10 µM
viability, T/C [1]: 103%
viability, T/C [2]: 110%
viability, T/C [3]: 108%
viability, T/C [4]: 111%
viability, T/C [5]: 100%
viability, T/C [6]: 104%
viability, T/C [7]: 100%
viability, T/C [8]: 106%
viability, T/C [9]: 101%
viability, T/C [10]: 110%
viability, T/C [11]: 108%
viability, T/C [12]: 97.5%
viability, T/C [13]: 96.5%
viability, T/C [14]: 97.3%
viability, T/C [15]: 98.2%
viability, T/C [16]: 92.4%
viability, T/C [17]: 106%
viability, T/C [18]: 96%
viability, T/C [19]: 103%
viability, T/C [20]: 93.3%
viability, T/C [21]: 97.5%
viability, T/C [22]: 109%
viability, T/C [23]: 110%
viability, T/C [24]: 89.1%
viability, T/C [25]: 102%
viability, T/C [26]: 98.7%
viability, T/C [27]: 90.7%
viability, T/C [28]: 89.7%
viability, T/C [29]: 104%
viability, T/C [30]: 103%
viability, T/C [31]: 93.7%
viability, T/C [32]: 78.3%
viability, T/C [33]: 98.9%
viability, T/C [34]: 97.6%
viability, T/C [35]: 108%
viability, T/C [36]: 78.4%
